# Test results taken from ChEMBL document CHEMBL3046707, “Cheminformatic designing of de novo inhibitors to 3-methyl adenine DNA glycosylase I (LiTagA) from Leptospira interrogans serovar lai strain 56601” (Med Chem Res, 2013).
# Biological target: T1, DNA-3-methyladenine glycosylase 1 (Escherichia coli (strain K12), UniProt P05100)
# T1 sequence (P05100 whole entry): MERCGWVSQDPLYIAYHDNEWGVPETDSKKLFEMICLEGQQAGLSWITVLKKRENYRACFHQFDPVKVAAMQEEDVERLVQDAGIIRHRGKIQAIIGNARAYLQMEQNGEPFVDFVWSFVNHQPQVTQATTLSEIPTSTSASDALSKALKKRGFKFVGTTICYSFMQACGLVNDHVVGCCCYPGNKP
# Test: Inhibition of Escherichia coli DNA-3-methyladenine glycosylase 1
row,SMILES,IC50 [µM]
1,Cn1cnc(N)c2ncnc1-2 [3-METHYLADENINE],1500
2,CCCn1cnc(N)c2ncnc1-2 [3-PROPYLADENINE],5
3,CCn1cnc(N)c2ncnc1-2 [3-ETHYLADENINE],50
4,CCCCn1cnc(N)c2ncnc1-2 [3-BUTYLADENINE],2.3
5,Nc1ncn(Cc2ccccc2)c2ncnc1-2 [3-BENZYLADENINE],0.4
